According to publication PMC5032167, “A conjugate of methotrexate and an analog of luteinizing hormone releasing hormone shows increased efficacy against prostate cancer” (Scientific Reports, 2016):
Marks after values point to notes of the source that are not given here.

How the values were obtained:
LNCaP cells = assay: MTT cytotoxicity assay, LNCaP cells; assay type: cell-based; details: Homo sapiens, 24 h treatment, means ± SD, n = 3
Protocol: (§1) The LNCaP cells were grown in RPMI 1640 medium(Gibco Invitrogen, CA) containing 10% FBS and 1% penicillin/streptomycin and the DU145 cells were grown in Eagle’s minimum essential medium (MEM) (Gibco Invitrogen, CA) with 2 mM L-glutamine and Earle’s BSS, 1.5 g/L sodium bicarbonate, 0.1mM non-essential amino acids, 1 mM sodium pyruvate, 10% FBS and 1% penicillin/streptomycin.
(§2) The cytotoxic effect of MTX, [Dlys^6]-LHRH, and [Dlys^6]-LHRH-MTX was evaluated using the methylthiazol tetrazolium (MTT) assay (Sigma Aldrich, MO), which determines the number of viable cells from the formazan crystals produced by metabolic activity.
(§3) In the equation, T represents the absorption value of the treatment group; C is the absorption value of the control (untreated) group; and B refers to the absorption value of the culture medium. IC50 values (μg/mL) were calculated with SPSS software. In a competition assay, Prostate cancer cells (5,000 per well) were separately incubated in 96-well plates in triplicate with [DLys^6]-LHRH–MTX alone and [DLys^6]-LHRH free peptide and [DLys^6]-LHRH–MTX together, and the cells were incubated for 24 hr. The plates were then analyzed with the MTT method.

PC-3 tumor xenografts = assay: In vivo anti-tumor activity, PC-3 tumor xenografts; parameters: species or system athymic BALB/c nude mice; details: for effect on tumor volume / Mean tumor weight / Mean tumor volume, Final: end of study; for Inhibition ratio of tumor weight / Inhibition ratio of tumor volume: against saline; for Inhibition ratio of tumor weight / Inhibition ratio of tumor volume / Mean tumor volume, Initial / Mean tumor weight / Mean tumor volume, Final / Tumor volume doubling time: n = 10; for Inhibition ratio of tumor volume / Tumor volume doubling time: i.v. twice weekly for 4 weeks; for Mean tumor volume, Initial: baseline, nude mice with PC-3 xenografts; for Mean tumor volume, Initial / Mean tumor weight / Mean tumor volume, Final: means ± SD; for Mean tumor volume, Final: i.v. tail vein twice weekly for 4 weeks; for Tumor volume doubling time: saline control 6.13 days
Protocol: Four week-old male athymic BALB/c nude mice were obtained from Sino-British SIPPR/BK Laboratory Animal Ltd (Shanghai, China). The animals were housed in sterile cages under laminar flow hoods in a temperature-controlled room with a 12h light/12h dark schedule and were fed autoclaved chow and water ad libitum.
PC-3 cells were harvested from subconfluent cultures after a brief exposure to 0.25% trypsin and 0.2% EDTA. Trypsinization was stopped by adding medium containing 10% FBS. The cells were washed once in serum-free medium and resuspended in PBS. Only suspensions consisting of single cells with >90% viability were used for the injections. PC-3 cells (1 × 10^7) in 100 μL PBS suspended in Matrigel (0.1 mg, Collaborative Biomedical Products Becton Dickinson Labware, Bedford, MA) were injected subcutaneously into the interscapular area using a 27-gauge needle.
On day 21, after PC-3 cell implantation, mice bearing tumors […] were randomized into the following four treatment groups (n = 10): saline controls, MTX treatment, [Dlys^6]-LHRH-MTX treatment and MTX plus [Dlys^6]-LHRH treatment. Treatments were made in 100 μL PBS and were given intravenously by tail vein injection twice weekly for 4 weeks. The vehicle-treated group received an equivalent amount of PBS. Tumor volumes were measured with calipers and the body weights of the mice were measured twice a week. Tumor volumes were calculated with the following formula: V(mm^3) = length × width^2/2, where width represents the shortest measurement in millimeters. The animals were euthanized 7 days after the last treatment. Body weights, tumor weights and organ weights were recorded.

DU145 cells = assay: MTT cytotoxicity assay, DU145 cells; assay type: cell-based; details: Homo sapiens, DU-145, 24 h treatment, means ± SD, n = 3
Protocol: as §1, §2, §3

PC-3 cells [1] = assay: Apoptosis analysis, Annexin V-FITC/PI staining, flow cytometry; assay type: cell-based, human; details: 24 h; for late apoptotic/early necrotic (AV+/PI+) cells: quadrant B2; for early apoptotic (AV+/PI−) populations: quadrant B4
Protocol: To quantitatively investigate apoptotic and early necrotic events in these treated cultures, the fluorescent probe Annexin V-FITC and PI were used, The presence of a apoptotic and early necrotic cells was then determined and quantified by flow cytometry analysis which clearly differentiated normal cells with low Annexin V-FITC and low PI staining, apoptotic cells with high Annexin V-FITC and low PI staining, necrotic cells with high Annexin V-FITC and high PI staining and cell debris with low Annexin VFITC and high PI staining.
Figure 4 Quantitative apoptotic measurement in PC-3 cells after treatment with [DLys^6]-LHRH-MTX and MTX, the concentration-dependent effects on apoptosis following treatment with MTX and [DLys^6]-LHRH-MTX for 24 at doses of 0.98 μmol/L and 3.91 μmol/L were determined by flow cytometry analysis. Results were expressed as a dot plot of Annexin V -FITC vs. PI. […]
To quantitatively evaluate the induction of apoptosis by flow cytometry, Annexin-V-FITC/PI staining was performed. Briefly, PC-3 cells were seeded in a 6-well culture plate at a density of 2 × 10^5 cells per well, and treated with various concentrations of MTX or [Dlys^6]-LHRH or [Dlys^6]-LHRH-MTX for 24 h. The cells were harvested and then stained with Annexin V-FITC/PI solution (1:1, v/v, […]) in the dark for 15 min at room temperature. After washing with PBS, the cell suspensions in buffer were gently vortexed, and analyzed within 1 h by flow cytometry (Beckton Dickinson, CA, […]).

PC-3 cells [2] = assay: MTT cytotoxicity assay, PC-3 cells; assay type: cell-based; details: Homo sapiens, 24 h treatment, means ± SD, n = 3
[3] = test system: normal human prostate fibroblast (HPrF) cells; assay: cells
Protocol: (§4) To determine the selectivity of LHRH-MTX, we performed a MTT experiment with normal human prostate fibroblast (HPrF) cells.
(§5) HPrF cells were exposed to MTX or [DLys^6]-LHRH-MTX at 0.015-1000 μmol/L. Growth inhibition was determined by MTT assay.
(§6) PC-3 cells and HPrF cells were maintained in T-media (Gibco Invitrogen, CA) supplemented with 10% fetal bovine serum (FBS) (Gibco Invitrogen, CA) and 1% penicillin/streptomycin (Cellgro Mediatech, nc., VA). […]
(§7) The cytotoxic effect of MTX, [Dlys^6]-LHRH, and [Dlys^6]-LHRH-MTX was evaluated using the methylthiazol tetrazolium (MTT) assay (Sigma Aldrich, MO), which determines the number of viable cells from the formazan crystals produced by metabolic activity[26][33][34]. […] The absorption at 570 nm was recorded with an ELISA plate reader (Bio-Rad, Microplate Reader 550 and the growth inhibitory (GI) rate was calculated according to the following equation: GI(%) = 100 − [T − B)/(C − B) × 100].

[4] = test system: prostate cancer cell lines (PC-3, DU145 and LNCaP); assay: MTT cytotoxicity assay, prostate cancer cell lines as a group; assay type: cell-based, human; details: 24 h
Protocol: as §1, §2, §3

[5] = test system: normal human prostate fibroblast (HPrF) cells
Protocol: as §4, §5, §6, §7

Row | Compound | IC50 (LNCaP cells) | effect on tumor volume (PC-3 tumor xenografts; PC-3 xenografts) | Inhibition ratio of tumor weight (PC-3 tumor xenografts) | Inhibition ratio of tumor volume (PC-3 tumor xenografts) | Mean tumor volume, Initial (PC-3 tumor xenografts) | Mean tumor weight (PC-3 tumor xenografts) | Mean tumor volume, Final (PC-3 tumor xenografts) | Tumor volume doubling time (PC-3 tumor xenografts) | IC50 (DU145 cells) | late apoptotic/early necrotic (AV+/PI+) cells (PC-3 cells [1]; PC-3, 0.98 μmol/L) | early apoptotic (AV+/PI−) populations (PC-3 cells [1]; PC-3, 0.98 μmol/L) | late apoptotic/early necrotic (AV+/PI+) cells (PC-3 cells [1]; PC-3, 3.91 μmol/L) | early apoptotic (AV+/PI−) populations (PC-3 cells [1]; PC-3, 3.91 μmol/L) | IC50 (PC-3 cells [2]) | IC50 [3] | histology of tumor sections, hematoxylin/eosin (PC-3 tumor xenografts; PC-3 xenografts, Fig. 7) | tumor burden (PC-3 tumor xenografts; day 30, n = 10, Fig. 6) | cytotoxicity against prostate cancer cell lines [4] | cytotoxicity against HPrF cells [5]
1 | CN(Cc1cnc2nc(N)nc(N)c2n1)c1ccc(C(=O)N[C@@H](CCC(=O)O)C(=O)O)cc1 [MTX, Methotrexate] | 9.68 ± 1.24 µM | significant anti-tumor effects | 59.90% | 61.88% | 63.38 ± 7.38 mm3 | 0.82 ± 0.12 ^a g | 700.39 ± 36.48 ^a mm3 | 8.88 days | 8.03 ± 1.29 µM | 8.35% | 15.38% | 9.52% | 30.88% | 6.34 ± 1.01 µM | 42.3 ± 7.25 µM |  |  |  | 
2 | [DLys^6]-LHRH |  | did not affect the tumor volume | 4.41% | 2.88% | 62.49 ± 13.70 mm3 | 1.95 ± 0.34 g | 1784.58 ± 95.99 mm3 | 6.13 days |  |  |  |  |  |  |  | predominantly viable cells | unchanged | no cytotoxicity | no cytotoxicity
